The source made the active and inactive calls. No cut-off for these calls is given here.
Key:
Estrogen receptor [1] = target: T1, Estrogen receptor (Homo sapiens, UniProt P03372); test: Inhibition of estradiol-induced coactivator peptide SRC1 binding to estrogen receptor alpha expressed in human HEC1 cells after 24 hrs by luciferase based mammalian two-hybrid assay; format: cell-based, HEC-1
T1 sequence (P03372 whole entry): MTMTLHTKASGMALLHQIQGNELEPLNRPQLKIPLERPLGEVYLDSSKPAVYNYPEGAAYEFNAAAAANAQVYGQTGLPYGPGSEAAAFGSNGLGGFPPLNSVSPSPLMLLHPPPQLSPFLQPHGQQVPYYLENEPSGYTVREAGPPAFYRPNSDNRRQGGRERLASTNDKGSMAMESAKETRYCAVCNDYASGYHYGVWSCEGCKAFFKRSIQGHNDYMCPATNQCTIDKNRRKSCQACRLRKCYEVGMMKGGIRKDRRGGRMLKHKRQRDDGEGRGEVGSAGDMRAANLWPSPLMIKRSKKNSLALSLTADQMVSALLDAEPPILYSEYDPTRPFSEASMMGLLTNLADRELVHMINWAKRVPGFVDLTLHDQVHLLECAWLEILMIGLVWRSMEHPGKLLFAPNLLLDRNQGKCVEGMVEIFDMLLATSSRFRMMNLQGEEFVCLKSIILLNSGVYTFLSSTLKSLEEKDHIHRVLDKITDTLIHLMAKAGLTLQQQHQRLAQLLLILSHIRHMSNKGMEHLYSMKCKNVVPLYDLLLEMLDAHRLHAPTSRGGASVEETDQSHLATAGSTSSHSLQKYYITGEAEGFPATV

[2] = target: Estrogen receptor alpha (Homo sapiens) (UniProt P03372); test: Inhibition of estradiol-induced coactivator peptide SRC1 binding to estrogen receptor alpha expressed in human HEC1 cells at 20 uM after 24 hrs by beta-galactosidase based mammalian two-hybrid assay; design: scale not given: the % may be the effect or the level left; settings: HEC-1
[3] = target: Estrogen receptor alpha (Homo sapiens) (UniProt P03372); test: Antagonist activity at estrogen receptor alpha expressed in human HEC1 cells assessed as inhibition of estradiol-induced transcriptional activity at 20 uM after 24 hrs by beta-galactosidase reporter gene assay; design: scale not given: the % may be the effect or the level left; settings: HEC-1
Estrogen receptor [4] = target: T1, Estrogen receptor; test: Inhibition of estradiol-induced coactivator peptide SRC binding to recombinant estrogen receptor by fluorescence polarization assay
[5] = target: Estrogen receptor alpha (Homo sapiens) (UniProt P03372); test: Covalent binding affinity to estrogen receptor alpha assessed as change in molecular weight after 30 mins by electrospray ionization mass spectrometry

Structure (SMILES) | IC50 (Estrogen receptor [1]) | Activity [2] | Activity [3] | IC50 (Estrogen receptor [4]) | Activity [5]
N=C(N)N/N=C/C=C(\Cl)c1cccc2ccccc12 | ≥ 50 µM | 50% | 50% | – | –
N=C(N)N/N=C/C1=C(C(F)(F)F)c2ccccc2CC1 | – | 50% | 50% | – | –
N=C(N)N/N=C/c1ccc2ccccc2c1 | 11.3 µM | 50% | 50% | – | –
N=C(N)N/N=C/C1=C(Oc2ccccc2)c2ccccc2CC1 | 5.9 µM | 50% | 50% | – | –
N=C(N)N/N=C/C1=C(Cl)c2ccccc2CC1 | 3.6 µM | 50% | 50% | 11 µM | inactive
COC1=C(/C=N/NC(=N)N)CCc2ccccc21 | ≥ 50 µM | 50% | 50% | – | –
N=C(N)N/N=C/C1=C(Br)c2ccccc2CC1 | 4.9 µM | 50% | 50% | – | –

More lines, main results first:

IC50 (Estrogen receptor [1]) | Activity [2] | Activity [3] | IC50 (Estrogen receptor [4]) | Structure (SMILES) | Activity [5]
2.1 µM | 50% | 50% | – | COc1ccc2c(c1)CCC(/C=N/NC(=N)N)=C2Cl | –
4.6 µM | 50% | 50% | – | N=C(N)N/N=C/C=C(\Cl)c1ccccc1 | –
9.4 µM | 50% | 50% | – | CC1CC(/C=N/NC(=N)N)=C(Cl)c2ccccc21 (stereo not given) | –
4 µM | 50% | 50% | 16 µM | N=C(N)N/N=C/C1=C(Cl)c2ccccc2CCC1 | –
2.5 µM | 50% | 50% | – | Cc1cc(C)c2c(c1)C(Cl)=C(/C=N/NC(=N)N)CC2 | –
– | 50% | 50% | – | C/C(=N\NC(=N)N)C1=C(Cl)c2ccccc2CC1 | –
2.6 µM | 50% | 50% | 37 µM | CC(/C=N/NC(=N)N)=C(/Cl)c1ccccc1 | –
6.8 µM | 50% | 50% | – | N=C(N)N/N=C/C1=C(Cl)c2ccccc2C1 | –
11.5 µM | 50% | 50% | – | N=C(N)N/N=C/c1cccc2ccccc12 | –

Source: ChEMBL document CHEMBL1151699, “Synthesis and biological evaluation of guanylhydrazone coactivator binding inhibitors for the estrogen receptor” (Bioorg Med Chem, 2008)
